Test results: patent US5912258A, “Thiadiazoleamide derivative and anti-ulcer drug” (Shiseido Co., Ltd., priority 1998, dated 1999)

Key:
gastric mucosa = test: PD: Gastric Mucosal Integrity Test (gastric mucosal potential difference); type: in vivo, Male Crj:SD rats; parameters: key: 5: Same as the control with no recognizable damage at all.; 4: Though a slight PD-decreasing tendency suggesting a slight possibility of mucosal damage is found, there is no problem.; 3: Though a weak decrease in PD and a possibility of a weak mucosal damage is recognized, there is no substantial problem.; 2: Medium degree of decrease in PD is found and a mucosal damage is recognized.; 1: Heavy degree of decrease in PD is found and a remarkable mucosal damage is recognized; conditions: rat, 100 mg/kg into the chamber, 60 minutes
Experimental: PD: Gastric Mucosal Integrity Test
In this case, since the sample compound has a necrotizing effect, it is inappropriate as an anti-ulcer medicament.
Therefore, the gastric mucosal potential difference (PD), which reflects the integrity of the gastric mucosa, is measured so as to confirm that the sample compound has no damaging effect on gastric mucosa, which is toxicity at gastric mucosal level.
Male Crj:SD rats (7 to 8-week-old) were fasted overnight, but allowed free access to water, and then, under urethane anesthesia (1.25 g/kg, i.p.), fixed to a cork board on its back. The abdomen of each rat was incised, and a small incision was made in the forestomach. Then, the inside of the stomach was washed with physiological saline heated at 37° C. From the forestomach, along the greater curvature thereof, the stomach was incised without damaging blood vessels. After the height of the cork board was adjusted on a jack, the stomach was mounted on ex vivo chamber. The area of the gastric mucosa exposed to the inside of this chamber was 2.5 cm^2. The inside of the chamber was perfused with physiological saline warmed at 37° C. by micro tube pump. By using an agar bridge containing 3M KCl, the potential difference between the chamber and the abdominal cavity was measured by a PD meter. Here, the rectal temperature was measured to control the body temperature during the experiment. After the PD was sufficiently stabilized, the perfusate was stopped and then 100 mg/10 ml/kg of the sample compound dissolved or suspended in an aqueous solution of 0.5% sodium carboxymethylcellulose or 0.05% Tween 80 was administered into the chamber, while PD was recorded for 60 minutes. To a control, the vehicle was administered.
The change in PD during 60 minutes after the administration of 100 mg/kg of the sample compound was collectively studied and, with reference to the positive control, classified into 5 levels as follows:
5: Same as the control with no recognizable damage at all.
3: Though a weak decrease in PD and a possibility of a weak mucosal damage is recognized, there is no substantial problem.
2: Medium degree of decrease in PD is found and a mucosal damage is recognized.
1: Heavy degree of decrease in PD is found and a remarkable mucosal damage is recognized.

Slc:ICR mice = test system: Slc:ICR mice; parameters: species or system Male Slc:ICR mice; conditions: mouse, in vivo
Experimental: AT: Single Dose Toxicity Pretest
Male Slc:ICR mice (5-week-old) were used. Each group has 3 to 5 mice and each mouse was fasted, but allowed free access to water, for 4 to 5 hours from 9 a.m. in the test day. Then, 2,000 mg/10 ml/kg of the sample compound dissolved or suspended in an aqueous solution of 0.5% sodium carboxymethylcellulose was orally administered thereto. To a control, only the vehicle was administered. […] The body weight was measured before and after the fasting as well as at the same time everyday. The dead animals were immediately subjected to autopsy and their organs were observed by naked eyes. Also, the living animals were sacrificed with ether or carbon dioxide one week after the administration and then their organs were observed by naked eyes.
The toxicity at the single dose of 2,000 mg/kg of the sample compound was expressed as being classified into 5 levels.
5: Mortality rate is 0%; no toxicity is found at all both in behavior and organs.
4: Mortality rate is 0%; while no toxicity is found in organs, slight toxicity is observed in behavior and body weight increase.
3: While there is a dead animal (though not all the animals are dead), no toxicity is found in organs.
2: Regardless of whether there is a dead animal or not, toxicity is found in organs.
1: All the animals are dead.

[1] = MTT: Cell Damaging and Protecting Effect Test; type: cell-based, male Japanese White rabbit; conditions: rabbit, gastric mucosa cells, 10^-4 M, smaller value is better, read-out: MTT: cell damaging rate
Source text: MTT: Cell Damaging and Protecting Effect Test
It is confirmed that there is no toxicity in cell level. Those having toxicity in cell level are inappropriate as an anti-ulcer drug.
A male Japanese White rabbit (2.5 to 3 kg) was anesthetized to death by Nembutal™ and, immediately thereafter, its stomach was removed. The greater curvature of the stomach was incised so as to remove the stomach contents therefrom. After the mucosal surface was washed with HBSS (Hank's Balanced Salt Solution), the stomach in ice-cooled HBSS was transferred to a laboratory. Then, after the pyloric antrum was removed, the gastric corpus mucosa was separated by a spatula and then minced into 2 to 3 mm pieces in BME (Basal Medium Eagle). Thereafter, these pieces were shaken at 120 to 130 cycles/minute for 15 minutes at 37° C. in BME 60 ml containing 280 U/ml of dispase and 30 to 50 U/mil of collagenase. Here, the concentration of collagenase was appropriately changed for each lot in view of the state of cells. The pieces were washed twice with EBSS (Earle's Balanced Salt Solution) containing 1 mM of EDTA and then shaken in MEM (Minimum Essential Medium) containing 1 mM of EDTA at 37° C. for 5 minutes. Subsequently, they were shaken in the dispase and collagenase having the same concentrations as those mentioned above for 15 minutes so as to remove the supernatant and then further shaken at 37° C. for 50 to 60 minutes at 120 to 130 cycles/minute. Then, after being washed twice with HBSS, Ham F12 containing 2% of Ultrocer G™ was used to attain the concentration of 1×10^6 cells/ml. Thus formed suspension was dispensed in each well of a 96-well plate by 200 μl. The plate was incubated in the atmosphere composed of 5% CO2 and 95% air at 37° C. for three days so as to attain a confluent state and then subjected to MTT assay.
The sample compound was dissolved in DMSO so as to attain a concentration of 10^-2 M and then diluted with HBSS containing 2% of Ultrocer G™ so as to attain a final concentration of 10^-4 M. To each group, which 8 wells were used for, 10 μl of MTT reagent was added immediately after 100 μl of the medium in each well was exchanged for same volume of the resulting solution of the sample compound. After being incubated in an atmosphere composed of 5% CO2 and 95% air at 37° C. for 4 hours, thus formed solution was centrifuged and then its supernatant was discarded. Subsequently, 100 μl of 100% ethanol was added to the residue so as to dissolve MTT formazan. Then, the absorbance (OD: 570 to 630) was measured by a microplate reader. This method utilizes a phenomenon in which MTT is changed to MTT formazan only by mitochondria of living cells so as to change color.
The cell damaging or cell protecting effect of the sample compound at the final concentration of 10^-4 M was expressed as cell damaging rate (%) as follows:
cell damaging rate (%)={1-(absorbance in sample group/absorbance in control group)}×100
Accordingly, the smaller value is better in the cell damaging rate.

| SMILES | PD: change in gastric mucosal potential difference (5 levels) (gastric mucosa) | AT: toxicity at the single dose (5 levels) (Slc:ICR mice) | cytotoxicity at 4 h, 100 µM [1] |
| --- | --- | --- | --- |
| CCSc1nnc(NC(=O)c2ccc(OC/C=C(\C)CCC=C(C)C)cc2)s1 [Example 15, 2-(4-geranyloxybenzoyl)amino-5-ethylthio-1,3,4-thiadiazole] | 5 | 5 | 1% |
| CC(C)c1ccc(C(=O)Nc2nnc(SCCN(C(C)C)C(C)C)s2)cc1 [Example 2, 2-(4-isopropylbenzoyl)amino-5-diisopropylaminoethylthio-1,3,4-thiadiazole] | 5 | 5 |  |
| CCN(CC)CCSc1nnc(NC(=O)c2ccc(OC/C=C(\C)CCC=C(C)C)cc2)s1 [Example 10, 2-(4-geranyloxybenzoyl)amino-5-diethylaminoethylthio-1,3,4-thiadiazole] | 5 | 5 | 17% |
| CC(C)=CCC/C(C)=C/COc1ccc(C(=O)Nc2nnc(SCc3ccccn3)s2)cc1 [Example 14, 2-(4-geranyloxybenzoyl)amino-5-(2-pyridylmethyl)thio-1,3,4-thiadiazole] | 5 | 5 | -13% |
| CCN(CC)CCSc1nnc(NC(=O)c2ccc(C(C)(C)C)cc2)s1 [Example 4, 2-(4-tert-butylbenzoyl)amino-5-diethylaminoethylthio-1,3,4-thiadiazole] | 3 |  | 22% |
| CCN(CC)CCSc1nnc(NC(=O)c2ccc(C(C)C)cc2)s1 [Example 1, 2-(4-isopropylbenzoyl)amino-5-diethylaminoethylthio-1,3,4-thiadiazole] | 3 |  | 22% |
| CC(C)=CCC/C(C)=C/COc1ccc(C(=O)Nc2nnc(SCCN3CCCCC3)s2)cc1 [Example 12, 2-(4-geranyloxybenzoyl)amino-5-piperidinoethylthio-1,3,4-thiadiazole] | 5 | 5 | 12% |
